Laboratory results as given in US7572803B2 (The Christus Stehlin Foundation for Cancer Research, priority 2007, dated 2009).
Several values for one entry are separate records, joined by “and”; a condition that tells them apart may be missing. Equal entries are not always repeated.

Experiments:
human tumor xenografts = settings: in mice, against human tumor xenografts; cited from earlier work
[1] = Determination of PK parameters after oral administration to nude mice; type: in vivo
Procedure: The determination of PK parameters of crystalline CZ48 hydrate. Pharmacokinetic profile of crystalline camptothecin-20-O-propionate hydrate with a single dose of 2000 mg/kg was recorded following an oral administration to nude mice. […] Camptothecin-20-O-acetate, an analogue of CZ48 which was not a crystalline hydrate, was used as an internal standard for determining all PK parameters of the CZ48 hydrate. A 100 μL plasma from the mouse treated with crystalline CZ48 hydrate at dose of 2000 mg/kg was transferred into a 2-mL test-tube, and then 100 μL of internal-standard working solution (400 ng/mL) was also added to the tube. To the mixture, were also added 200 μL of 1% acetic acid solution and 1 mL ethyl ether. After vortex-mixing for 10 s, the mixture was incubated at room temperature on a shaker for 10 min, and then centrifuged at 10,000×g for 15 min. The upper layer obtained from the centrifugation was transferred into a clean tube and evaporated to dryness using an evaporator at 40° C. under a stream of nitrogen. The residue was reconstituted in 200 μL of water/acetonitrite (50/50, v/v) solvent system, and a 20-μL portion of the aliquot was injected into HPLC system for analysis. For the study, A 100 μL blank plasma from untreated mouse was also processed in the same manner as the treated.

[2] = Pharmacokinetics for CPT in human plasma (lactone ring intact); type: in vitro ADME; settings: read-out: half-life time of the drug with the lactone ring intact
McC colon tumor line = assay: Effective dose, McC xenograft in nude mice; type: in vivo, human; settings: oral, dose giving positive response
Procedure: (§1) In vivo anti-tumor activity determination. All the animal experiments were performed on nude Swiss mice of the NIH, high-fertility strain. They were bred and raised in laboratory under strict pathogen-free conditions. For anti-tumor activity determination, a tumor xenograft growing in a nude mouse, approximately 1 cm^3 in size, was surgically removed under sterile conditions, finely minced with iridectomy scissors, and suspended in cell culture medium at the ratio 1:10, v/v. One half of 1 mL of this suspension, containing about 50 mg of wet-weight tumor mince was subcutaneously inoculated on the upper half of the dorsal thorax of the mouse. Groups of four or five animals were used. Hydrated crystalline CZ48 was finely suspended in cottonseed oil and then injected into the stomach cavity of the mouse through the anterior abdominal wall using a 26 gauge needle. The weekly schedule used for oral administration of hydrated crystalline CZ48 was once a day for 7 days, or five days on and two days off. This schedule was employed throughout all the animal experiments. Treatment was initiated when the tumor had reached a volume of about 200 mm^3, i.e., well-vascularized, measurable, and growing exponentially. Tumors growing in animals were checked and measured with a caliper once a week. The effective doses were established when a positive response in mouse was reached.

HT29 colon tumor line = assay: Effective dose, HT29 xenograft in nude mice; type: in vivo, human; settings: oral, dose giving positive response
Procedure: as §1

SW48 colon tumor line = assay: Effective dose, SW48 xenograft in nude mice; type: in vivo, human; settings: oral, dose giving positive response
Procedure: as §1

BRO melanoma line = assay: Effective dose, BRO xenograft in nude mice; type: in vivo, human; settings: oral, dose giving positive response
Procedure: as §1

[3] = test system: PC3P62 prostate tumor line; assay: Effective dose, PC3P62 xenograft in nude mice; type: in vivo, human; settings: oral, dose giving positive response
Procedure: as §1

[4] = test system: MiaPaCa2 pancreas tumor line; assay: Effective dose, MiaPaCa2 xenograft in nude mice; type: in vivo, human; settings: oral, dose giving positive response
Procedure: as §1

SPA lung tumor line = assay: Effective dose, SPA xenograft in nude mice; type: in vivo, human; settings: oral, dose giving positive response
Procedure: as §1

[5] = In situ single-pass intestinal perfusion, percentage absorption in mouse; type: in vivo, nude mice
Procedure: The determination of percentage absorption of crystalline CZ48 hydrate in mouse. Absorption studies were also performed with crystalline camptothecin-20-O-propionate hydrate by using a mouse perfusion procedure on 4 nude mice. Prior to the in situ single-pass perfusion procedure, HBSS buffer (pH 7.4) consisting of 9.801 g/L HBSS powders, 0.372 g/L NaHCO3, 3.502 g/L glucose, 5.963 g/L HEPES, and 1.164 g/L NaCl was prepared and stored in a refrigerator. The perfusate for the procedure was prepared by mixing a certain amount of the drug, crystalline CZ48 hydrate, with an amount of HBSS buffer. The mixture was heated up to 37° C. (body temperature) right before use. A group of 4 mice with weights ranging from 25 to 30 grams and ages ranging from 9 to 11 months were anesthetized and placed onto a heating plate. The plate was maintained a constant temperature of 37° C. After a perfusion system was set ready with a mouse, two segments of the intestine (small intestine, IS, and colon) were simultaneously perfused with the freshly prepared perfusate. The pump was maintained at a constant flow-rate of 0.191 mL/min for the whole perfusion. Two perfusate samples were collected from each outlet (SI tract or colon) every 30 min. The concentrations of the drug in perfusate from the outlets were determined by HPLC analysis, and the corresponding percentage absorptions were calculated relative to the starting amount of the drug and shown in Table 5.

human Bladder tumor line = assay: Anti-tumor activity, bladder tumor xenografts in nude mice; type: in vivo; settings: oral
Description: (§2) In vivo anti-tumor activity determination. The human tumors used in the experiments discussed herein included 1 bladder line, 3 breast lines, 4 colon lines, 1 DSRCT line, 1 kidney line, 2 melanoma lines, 2 lung lines, 7 pancreatic lines, and 1 prostate line. The hydrated crystalline CZ48 drug was finely suspended in cottonseed oil and stored in a refrigerator for using. The suspension was orally administered to the mice bearing human tumors once a day continuously for 5 days on and 2 days off or once a day for seven days for the whole treatment period. The treatment period for the various tumor lines varied, ranging from two weeks to one year. […] With the continuous schedule (daily treatment), one of those two negatively responded pancreatic tumor lines under the 5/2 schedule achieved the positive response.
(§3) In vivo anti-tumor activity determination. All the animal experiments were performed on nude Swiss mice of the NIH, high-fertility strain. They were bred and raised in laboratory under strict pathogen-free conditions. For anti-tumor activity determination, a tumor xenograft growing in a nude mouse, approximately 1 cm^3 in size, was surgically removed under sterile conditions, finely minced with iridectomy scissors, and suspended in cell culture medium at the ratio 1:10, v/v. […] Tumors growing in animals were checked and measured with a caliper once a week. […]

human Melanoma lines = assay: Anti-tumor activity, melanoma xenografts in nude mice; type: in vivo; settings: oral
Description: as §2, §3

BOL bladder tumor line = assay: Effective dose, BOL xenograft in nude mice; type: in vivo, human; settings: oral, dose giving positive response
Procedure: as §1

human DSRCT line = assay: Anti-tumor activity, DSRCT xenografts in nude mice; type: in vivo; settings: oral
Description: as §2, §3

PANC1-pancreas = assay: Effective dose, PANC1 xenograft in nude mice; type: in vivo, human; settings: oral, dose giving positive response
Procedure: as §1

DOY lung tumor line = assay: Effective dose, DOY xenograft in nude mice; type: in vivo, human; settings: oral, dose giving positive response
Procedure: as §1

WAR breast tumor line = assay: Effective dose, WAR xenograft in nude mice; type: in vivo, human; settings: oral, dose giving positive response
Procedure: as §1

SQU colon tumor line = assay: Effective dose, SQU xenograft in nude mice; type: in vivo, human; settings: oral, dose giving positive response
Procedure: as §1

human Colon tumor lines = assay: Anti-tumor activity, colon tumor xenografts in nude mice; type: in vivo; settings: oral
Description: as §2, §3

MUR breast tumor line = assay: Effective dose, MUR xenograft in nude mice; type: in vivo, human; settings: oral, dose giving positive response
Procedure: as §1

LIE pancreas tumor line = assay: Effective dose, LIE xenograft in nude mice; type: in vivo, human; settings: oral, dose giving positive response
Procedure: as §1

[6] = In vivo toxicity determination (body weight) in nude mice; settings: continuously for 60 days
Procedure: In vivo toxicity determination. Groups of 4 or 5 animals of about the same age and having similar weights were chosen and treated with crystalline CZ48 hydrate orally at doses of 1500 mg/kg and 2000 mg/kg, respectively, continuously for 60 days. The 3 groups of mice chosen for the toxicity studies were healthy, of similar age and weights, and non-tumor-bearing. One group was used as control, and the other two groups were treated with the drug at two high-dose levels, 1500 mg/kg and 2000 mg/kg respectively, for about two months. The body weight changes in animals during the treatment were recorded for the treated group versus the untreated group beginning at day 0 and ending at the 60th day.
The body-weight loss was used as a parameter to measure the toxicity of the agent. Usually, body weight loss of 10% or more in mice during treatment is considered a sign of toxicity. Greater body-weight loss signifies greater toxicity.

FOSS melanoma line = assay: Effective dose, FOSS xenograft in nude mice; type: in vivo, human; settings: oral, dose giving positive response
Procedure: as §1

[7] = test system: HS766T pancreas tumor line; assay: Effective dose, HS766T xenograft in nude mice; type: in vivo, human; settings: oral, dose giving positive response
Procedure: as §1

[8] = test system: ASPC1 pancreas tumor line; assay: Effective dose, ASPC1 xenograft in nude mice; type: in vivo, human; settings: oral, dose giving positive response
Procedure: as §1

CAK-kidney = assay: Effective dose, CAK xenograft in nude mice; type: in vivo, human; settings: oral, dose giving positive response
Procedure: as §1

human Lung tumor lines = assay: Anti-tumor activity, lung tumor xenografts in nude mice; type: in vivo; settings: oral
Description: as §2, §3

SU86.86-pancreas = assay: Effective dose, SU86.86 xenograft in nude mice; type: in vivo, human; settings: oral, dose giving positive response
Procedure: as §1

human Breast tumor lines = assay: Anti-tumor activity, breast tumor xenografts in nude mice; type: in vivo; settings: oral
Description: as §2, §3

human xenografts = assay: In vivo anti-tumor activity against human tumor xenografts in nude mice (all lines); settings: oral, cottonseed oil suspension, 5 days-on and 2 days-off schedule
Description: as §2, §3

MYE DSRCT line = assay: Effective dose, MYE xenograft in nude mice; type: in vivo, human; settings: oral, dose giving positive response
Procedure: as §1

[9] = test system: human Pancreas tumor lines; assay: Anti-tumor activity, pancreatic tumor xenografts in nude mice; type: in vivo; settings: oral
Description: as §2
as §1, with “Treatment was initiated when the tumor had reached a volume of about 200 mm^3, i.e., well-vascularized, measurable, and growing exponentially.” left out, “The effective doses were established when a positive response in mouse was reached.” left out

CLO-breast carcinoma = assay: Effective dose, CLO xenograft in nude mice; type: in vivo, human; settings: oral
Procedure: as §1

CC[C@@]1(O)C(=O)OCc2c1cc1n(c2=O)Cc2cc3c([N+](=O)[O-])cccc3nc2-1 [9-nitrocamptothecin]
potency relative to CPT (human tumor xenografts): 2-3 times

CC[C@@]1(O)C(=O)OCc2c1cc1n(c2=O)Cc2cc3ccccc3nc2-1 [CPT, camptothecin, reference compound]
Ke ([1]; mice, oral hydrated crystalline CZ48 2000 mg/kg, plasma, CPT = major metabolite): 0.40 ± 0.13 h⁻¹
half-life [2]: ~30 min

CCC(=O)O[C@]1(CC)C(=O)OCc2c1cc1n(c2=O)Cc2cc3ccccc3nc2-1 [hydrated crystalline CZ48, crystalline camptothecin-20-O-propionate hydrate]
Effective dose (McC colon tumor line): 300 mg/kg
Effective dose (HT29 colon tumor line): 50 mg/kg
Effective dose (SW48 colon tumor line): 100 mg/kg
AUC(0-t) ([1]; nude, mouse, in vivo, po, 2000 mg/kg): 1930 ± 114 ng·h/mL
Effective dose (BRO melanoma line): 100 mg/kg
Effective dose [3]: 300 mg/kg
Effective dose [4]: 100 mg/kg
Effective dose (SPA lung tumor line): 100 mg/kg
% Crystalline CZ48 Hydrate Absorptions, Colon, Ave ([5]; colon, average of 4 mice): −19.46%
% Crystalline CZ48 Hydrate Absorptions, Colon ([5]; colon, individual mice No. 1-4, HBSS pH 7.4, 37° C., 0.191 mL/min, listed as Crystalline CZ48 Hydrate, hydrate): 8.04% and −35.17% and −73.24% and 6.82%
% Crystalline CZ48 Hydrate Absorptions, SI, Ave ([5]; small intestine, average of 4 mice): 22.23%
% Crystalline CZ48 Hydrate Absorptions, SI ([5]; small intestine, individual mice No. 1-4, HBSS pH 7.4, 37° C., 0.191 mL/min, listed as Crystalline CZ48 Hydrate, hydrate): 11.49% and 16.51% and 9.34% and 45.85%
Response Positive (inhibition of growth bigger than 50%), lines responding/tested (human Bladder tumor line): 1/1
Response Positive (inhibition of growth bigger than 50%), lines responding/tested (human Melanoma lines): 2/2
Effective dose (BOL bladder tumor line): 200 mg/kg
Response Positive (inhibition of growth bigger than 50%), lines responding/tested (human DSRCT line): 1/1
Effective dose (PANC1-pancreas): 1000 mg/kg
Effective dose (DOY lung tumor line): 15 mg/kg
Effective dose (WAR breast tumor line): 200 mg/kg
Effective dose (SQU colon tumor line): 30 mg/kg
Response Positive (inhibition of growth bigger than 50%), lines responding/tested (human Colon tumor lines): 4/4
Effective dose (MUR breast tumor line): 300 mg/kg
Effective dose (LIE pancreas tumor line): 100 mg/kg
toxicity in the treated mice ([6]; 1500 mg/kg and 2000 mg/kg orally, non-tumor-bearing mice): no noticeable toxicity
dose mice could tolerate ([6]; oral, implied from no significant body-weight loss): higher than 2000 mg/kg
Effective dose (FOSS melanoma line): 300 mg/kg
Effective dose [7]: 100 mg/kg
Effective dose [8]: 300 mg/kg
Effective dose (CAK-kidney): 1000 mg/kg
Response Positive (inhibition of growth bigger than 50%), lines responding/tested (human Lung tumor lines): 2/2
Effective dose (SU86.86-pancreas): 1000 mg/kg
Response Positive (inhibition of growth bigger than 50%), lines responding/tested (human Breast tumor lines): 3/3
tumor lines that achieved positive response (greater than 50% inhibition in tumor-growth inhibition) (human xenografts): 18 lines
Effective dose (MYE DSRCT line): 100 mg/kg
Response Negative (inhibition of growth smaller than 50%), lines/tested ([9]; Pancreas, nude mice): 1/7
Response Positive (inhibition of growth bigger than 50%), lines responding/tested ([9]; Pancreas, nude mice): 6/7
pancreatic tumor lines that failed to obtain the positive response ([9]; 5 days-on and 2 days-off schedule): 2 lines
Effective dose (CLO-breast carcinoma; CLO (Breast), nude mice, dose giving positive response): 4 mg/kg
tumor growth inhibition (CLO-breast carcinoma; CLO-breast carcinoma, dose 4 mg/kg): complete inhibition
